In publication PMC8460738, “Berberine is an insulin secretagogue targeting the KCNH6 potassium channel” (Nature Communications, 2021):

Molecular target: T1, KCNH6 potassium channel (Homo sapiens, UniProt Q9H252)
T1 construct: human KCNH6 (WT cDNA) transfected in HEK293T cells; FLAG-tagged for pull-down
T1 sequence (Q9H252 1-958): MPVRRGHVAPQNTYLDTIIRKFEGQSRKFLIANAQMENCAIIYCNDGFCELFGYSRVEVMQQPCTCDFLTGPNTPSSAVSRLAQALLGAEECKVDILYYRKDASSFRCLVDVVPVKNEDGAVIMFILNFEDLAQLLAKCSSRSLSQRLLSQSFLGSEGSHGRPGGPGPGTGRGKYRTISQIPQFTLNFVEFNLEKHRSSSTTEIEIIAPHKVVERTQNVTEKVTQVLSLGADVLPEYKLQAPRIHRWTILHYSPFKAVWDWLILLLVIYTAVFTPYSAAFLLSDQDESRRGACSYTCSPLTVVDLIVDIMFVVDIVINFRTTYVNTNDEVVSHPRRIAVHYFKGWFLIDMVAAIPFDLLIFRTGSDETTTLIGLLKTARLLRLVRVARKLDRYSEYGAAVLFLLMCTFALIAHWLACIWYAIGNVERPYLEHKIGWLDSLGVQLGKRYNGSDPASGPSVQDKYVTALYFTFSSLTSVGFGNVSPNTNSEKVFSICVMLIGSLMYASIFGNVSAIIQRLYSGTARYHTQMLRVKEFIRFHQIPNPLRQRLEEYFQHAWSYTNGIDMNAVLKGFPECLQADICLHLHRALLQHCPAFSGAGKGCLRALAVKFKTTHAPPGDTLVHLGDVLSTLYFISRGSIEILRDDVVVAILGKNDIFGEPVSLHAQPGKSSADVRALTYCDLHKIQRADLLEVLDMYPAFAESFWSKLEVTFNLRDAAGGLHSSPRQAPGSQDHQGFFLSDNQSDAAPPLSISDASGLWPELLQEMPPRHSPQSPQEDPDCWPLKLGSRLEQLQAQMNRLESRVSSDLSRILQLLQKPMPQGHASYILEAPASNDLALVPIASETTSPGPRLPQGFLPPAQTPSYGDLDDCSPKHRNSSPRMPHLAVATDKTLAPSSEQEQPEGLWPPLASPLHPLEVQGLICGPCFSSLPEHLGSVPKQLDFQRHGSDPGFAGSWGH
Assay: whole-cell patch clamp of KCNH6-transfected HEK293T cells; affinity-bead pull-down from cell extract competed by free BBR
Assay type: cell-based

## COc1ccc2cc3[n+](cc2c1OC)CCc1cc2c(cc1-3)OCO2 [BBR, berberine]
  IC50: 1.01 ± 0.04 µM
